The target of one test is T1, HCV NS3 protease domain (Hepatitis C virus genotype 1b, UniProt Q9WMX2).
T1 construct: The first 181 amino acids of NS3 (residues 1027-1207 of the viral polyprotein); hexa-histidine (C); made in house; host or cells: E. coli BL21/DE3 pLysS
Description: biochemical. As to conditions: Enzyme Assay 1 (HCV NS3 Protease Domain Peptide Cleavage Assay) activity, apparent Ki class.

Test [1] concerns the target T2, full-length hepatitis C viral protein NS3•4A (Hepatitis C virus genotype 1a, UniProt P27958).
T2 construct: hexa-histidine (N); made in house; host or cells: Sf9 insect cells (baculovirus, pVL1392)
Description: biochemical. Also noted: species or system HCV sub-type strain 1a. Particulars: Enzyme Assay 2 (HCV NS3 Peptide Cleavage Assay) activity, apparent Ki class.

Some results are limits rather than exact numbers.

Take `CCC[C@H](NC(=O)[C@@H]1C[C@]2(CC(c3cccc(Cl)c3)=NO2)CN1C(=O)[C@@H](Nc1ccccc1)C(C)(C)C)C(=O)C(=O)NC1CC1` [Compound 172]: the Ki is over 500 nM at HCV NS3 protease domain and 100 to 500 nM in test [1].

For `CCC[C@H](NC(=O)[C@@H]1C[C@]2(CC(c3cccc(Cl)c3)=NO2)CN1C(=O)[C@@H](NC(=O)CC1CCCCC1)C(C)(C)C)C(=O)C(=O)NCc1csc(-c2ccccc2)n1` [Compound 176], the Ki (on HCV NS3 protease domain; in test [1]) was 100 to 500 nM in each case.

For the compound `CCC[C@H](NC(=O)[C@@H]1C[C@]2(CC(c3ccc(C#N)cc3)=NO2)CN1C(=O)[C@@H](NC(=O)CC1CCOCC1)C(C)(C)C)C(=O)C(=O)NC1CC1` [Compound 177], the Ki was over 500 nM on HCV NS3 protease domain and 100 to 500 nM in test [1].

As to `CCC[C@H](NC(=O)[C@@H]1C[C@]2(CC(c3cccc(Cl)c3)=NO2)CN1C(=O)[C@@H](NC(=O)CC1CCCCC1)C(C)(C)C)C(=O)C(=O)Nc1ccc2c(C)cc(=O)[nH]c2c1` [Compound 181], the Ki (at HCV NS3 protease domain; in test [1]) was over 500 nM throughout.

For the compound `CCC[C@H](NC(=O)[C@@H]1C[C@]2(CC(c3cccc(Cl)c3)=NO2)CN1C(=O)[C@@H](NC(=O)CC1CCCCC1)C(C)(C)C)C(=O)C(=O)N(C)CC` [Compound 182], the Ki (at HCV NS3 protease domain; in test [1]) was over 500 nM each time.

Turning to `CCC[C@H](NC(=O)[C@@H]1C[C@]2(CC(c3cccc(Cl)c3)=NO2)CN1C(=O)[C@H](Cc1ccsc1)NC(=O)CC1CCCCC1)C(=O)C(=O)NC1CC1` [Compound 185], the Ki on HCV NS3 protease domain is over 500 nM; in test [1] it was 100 to 500 nM.

Turning to `CCC[C@H](NC(=O)[C@@H]1C[C@]2(CC(c3cccc(Cl)c3)=NO2)CN1C(=O)[C@@H](NC(=O)CC1CCCCC1)C(C)(C)C)C(=O)C(=O)N1CC[C@@H](NC(C)=O)C1` [Compound 186], the Ki (on HCV NS3 protease domain; in test [1]) was over 500 nM each time.

Consider `CN(C)C(=O)C(=O)[C@@H](CC1CCC1)NC(=O)[C@@H]1C[C@]2(CC(c3cccc(Cl)c3)=NO2)CN1C(=O)[C@@H](NC(=O)CC1CCCCC1)C(C)(C)C` [Compound 188], for which the Ki (on HCV NS3 protease domain; in test [1]) was over 500 nM in each case.

For the compound `C=C[C@@H]1C[C@]1(NC(=O)[C@@H]1C[C@]2(CC(c3cccc(Cl)c3)=NO2)CN1C(=O)[C@@H](NC(=O)OC1CCCC1)C(C)(C)C)C(=O)NS(=O)(=O)C1CC1` [Compound 190], the Ki on HCV NS3 protease domain was 100 to 500 nM; in test [1], under 100 nM.

For the compound `CCC[C@H](NC(=O)[C@@H]1C[C@]2(CC(c3ccc4c(c3)CCC(C)(C)O4)=NO2)CN1C(=O)[C@@H](NC(=O)CC1CCCCC1)C(C)(C)C)C(=O)C(=O)NC1CC1` [Compound 204], the Ki (at HCV NS3 protease domain; in test [1]) was 100 to 500 nM throughout.

As to `CCC[C@H](NC(=O)[C@@H]1C[C@]2(CC(c3cccc(Cl)c3)=NO2)CN1C(=O)[C@@H](NC(=O)CC1CCCCC1)C(C)(C)C)C(=O)C(=O)NCCC(=O)Nc1cc(OC)c2ccccc2c1` [Compound 206], the Ki (on HCV NS3 protease domain; in test [1]) was 100 to 500 nM in each case.

For the compound `CCC[C@H](NC(=O)[C@@H]1C[C@]2(CC(c3cccc(Cl)c3)=NO2)CN1C(=O)[C@H](Cc1ccc(OC)cc1)NC(=O)CC1CCCCC1)C(=O)C(=O)NC1CC1` [Compound 213], the Ki (on HCV NS3 protease domain; in test [1]) was over 500 nM each time.

`CCC[C@H](NC(=O)[C@@H]1C[C@]2(CC(c3cccc(Cl)c3)=NO2)CN1C(=O)[C@@H](NC(=O)C1CCC(=O)N1)C(C)C)C(=O)C(=O)NC1CC1` (stereo partly drawn) [Compound 218]: the Ki (at HCV NS3 protease domain; in test [1]) was over 500 nM each time.

In the case of `CCC[C@H](NC(=O)[C@@H]1C[C@]2(CC(c3cccc(Cl)c3)=NO2)CN1C(=O)[C@@H](NC(=O)CC1CCCCC1)C(C)(C)C)C(=O)C(=O)NCCc1ccc2c(c1)OCO2` [Compound 221], the Ki (at HCV NS3 protease domain; in test [1]) was 100 to 500 nM in each case.

On to `CCC[C@H](NC(=O)[C@@H]1C[C@]2(CC(c3cccc(Cl)c3)=NO2)CN1C(=O)C1(C(N)=O)CC1)C(=O)C(=O)NC1CC1` [Compound 227], for which the Ki (on HCV NS3 protease domain; in test [1]) was over 500 nM each time.

Source of the values: patent US7964624B1, “Inhibitors of serine proteases” (priority 2005, dated 2011).
